Source: patent US7868006B2, “Heterocyclic substituted piperazines with CXCR3 antagonist activity” (Schering Corporation, priority 2005, dated 2011)

Each compound was assayed against T1, human CXCR3 (N-delta 4) (Homo sapiens, UniProt P49682) (assay: Human CXCR3 (N-delta 4) Scintillation Proximity Assay (SPA), [125I] IP-10 binding). Conditions: IC50 rating; Ba/F3-hCXCR3 (N-delta 4) membranes, 25 pM [125I] IP-10; read-out: IC50.
T1 construct: CD8 leader (N); Flag tag (N); expressed in transfected cells; host or cells: mouse pro-B Ba/F3 cells, stably transfected with pME18Sneo-hCXCR3 (N-delta 4); membrane preparation
T1 sequence (P49682 5-368 limits assumed): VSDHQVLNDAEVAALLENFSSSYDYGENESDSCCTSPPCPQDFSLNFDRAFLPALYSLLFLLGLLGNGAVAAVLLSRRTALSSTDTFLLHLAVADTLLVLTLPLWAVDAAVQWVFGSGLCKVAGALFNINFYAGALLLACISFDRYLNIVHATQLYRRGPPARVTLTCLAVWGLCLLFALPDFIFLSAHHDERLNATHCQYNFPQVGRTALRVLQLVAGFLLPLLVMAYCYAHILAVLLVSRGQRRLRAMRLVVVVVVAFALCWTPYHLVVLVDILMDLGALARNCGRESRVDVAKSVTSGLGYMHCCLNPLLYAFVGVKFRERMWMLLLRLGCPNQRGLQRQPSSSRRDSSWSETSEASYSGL
Text: The inventive compounds can readily be evaluated to determine activity at The CXCR3 receptors by known methods, such as, for example, Development of Human CXCR3 (N-delta 4) Binding Assay.
Cloning and Expression of Human CXCR3 (N-delta 4):
The DNA encoding human CXCR3 was cloned by PCR using human genomic DNA (Promega, Madison, Wis.) as a template. The PCR primers were designed based on the published sequence of human orphan receptor GPR9 (1) with incorporated restriction sites, a Kozak consensus sequence, CD8 leader and Flag tag. The PCR product was subcloned into the mammalian expression vector pME18Sneo, a derivative of the SR-alpha expression vector (designated as pME18Sneo-hCXCR3 (N-delta 4).
IL-3-dependent mouse pro-B cells Ba/F3 were transfected by electroporation in 0.4 ml Dulbecco's PBS containing 4×10^6 cells with 20 μg of pME18Sneo-hCXCR3 (N-delta 4) plasmid DNA. Cells were pulsed at 400 Volts, 100 OHMs, 960 μFd. The transfected cells were under selection with 1 mg/ml G418 (Life Technologies, Gaithersburg, Md.). G418-resistant Ba/F3 clones were screened for CXCR3 expression by specific binding of [^125I] IP-10 (NEN Life Science Products, Boston, Mass.).
Preparation of Ba/F3-hCXCR3 (N-delta 4) Membranes:
Ba/F3 cells expressing human CXCR3 (N-delta 4) were pelleted and resuspended in the lysis buffer containing 10 mM HEPES, pH 7.5 and Complete® protease inhibitors (1 tablet per 100 ml) (Boehringer Mannheim, Indianapolis, Ind.) at a cell density of 20×10^6 cells per ml. After 5 minutes incubation on ice, cells were transferred to 4639 cell disruption bomb (Parr Instrument, Moline, Ill.) and applied with 1,500 psi of nitrogen for 30 minutes on ice. Large cellular debris was removed by centrifugation at 1,000×g. Cell membrane in the supernatant was sedimented at 100,000×g. The membrane was resuspended in the lysis buffer supplemented with 10% sucrose and stored at −80° C. Total protein concentration of the membrane was determined by BCA method from Pierce (Rockford, Ill.).
Human CXCR3 (N-delta 4) Scintillation Proximity Assay (SPA):
For each assay point, 2 μg of membrane was preincubated for 1 hr with 300 μg wheat germ agglutinin (WGA) coated SPA beads (Amersham, Arlington Heights, Ill.) in the binding buffer (50 mM HEPES, 1 mM CaCl2, 5 mM MgCl2, 125 mM NaCl, 0.002% NaN3, 1.0% BSA) at room temperature. The beads were spun down, washed once, resuspended in the binding buffer and transferred to a 96-well Isoplate (Wallac, Gaithersburg, Md.). 25 pM of [^125I] IP-10 with tested compounds in a series of titration were added to start the reaction. After 3 hr reaction at room temperature, the amount of [^125I] IP-10 bound to the SPA beads was determined with a Wallac 1450 Microbeta counter.
The Ki values for the various example compounds of the present invention are given in the afore-mentioned Table 1. From these values, it would be apparent to the skilled artisan that the compounds of the invention have excellent utility CXCR3 antagonists.

SMILES | IC50 [nM]
CC[C@H]1CN(c2nc(N)c(-c3nnc(N)o3)nc2Cl)CCN1C1CCN(C(=O)c2ccc(OC(F)(F)F)cc2)CC1 [Compound 76] | 25 to 100
CC[C@H]1CN(c2nc(N)c(-c3nnc(C(=O)NCC(F)(F)F)o3)nc2Cl)CCN1C1CCN(C(=O)c2ccc(Cl)cc2)CC1 [Compound 77] | 25 to 100
CC[C@H]1CN(c2nc(N)c(-c3nnc(C(C)(C)O)o3)nc2Cl)CCN1C1CCN(C(=O)c2ccc(Cl)cc2)CC1 [Compound 78] | 25 to 100
CC[C@H]1CN(c2nc(N)c(-c3nnc(OC)o3)nc2Cl)CCN1C1CCN(C(=O)c2ccc(Cl)nc2N)CC1 [Compound 79] | > 100
CC[C@H]1CN(c2nc(N)c(-c3nnc(C(F)(F)F)o3)nc2Cl)CCN1C1CCN(C(=O)c2ccc(Cl)cc2)CC1 [Compound 80] | > 100
CCOC(=O)c1nnc(-c2nc(Cl)c(N3CCN(C4CCN(C(=O)c5ccc(Cl)nc5N)CC4)[C@@H](CC)C3)nc2N)o1 [Compound 81] | > 100
CC[C@H]1CN(c2nc(N)c(-c3nnc(C)o3)nc2Cl)CCN1C1CCN(C(=O)c2cc(F)c(N)nc2Cl)CC1 [Compound 82] | > 100
CC[C@H]1CN(c2nc(N)c(-c3nnc(C)o3)nc2Cl)CCN1C1CCN([C@H](C(=O)OC)c2ccc(Cl)cc2)CC1 [Compound 83] | > 100
CC[C@H]1CN(c2nc(N)c(-c3nc(N)no3)nc2Cl)CCN1C1CCN(C(=O)c2ccc(Cl)nc2N)CC1 [Compound 84] | > 100
CC[C@H]1CN(c2nc(N)c(-c3nnc(CO)o3)nc2Cl)CCN1C1CCN([C@H](C(=O)OC)c2ccc(Cl)cc2)CC1 [Compound 85] | > 100
CC[C@H]1CN(c2nc(N)c(-c3n[nH]c(=S)n3C)nc2Cl)CCN1C1CCN(Cc2ccc(Cl)cc2)CC1 [Compound 86] | > 100
CC[C@H]1CN(c2nc(N)c(-c3n[nH]c(=O)o3)nc2Cl)CCN1C1CCN(Cc2ccc(Cl)cc2)CC1 [Compound 87] | > 100
CC[C@H]1CN(c2nc(N)c(-c3nnc(C(=O)NC4CC4)o3)nc2Cl)CCN1C1CCN(C(=O)c2ccc(Cl)cc2)CC1 [Compound 88] | > 100
CC[C@H]1CN(c2nc(O)c(-c3nnc(C)o3)nc2Cl)CCN1C1CCN(C(=O)c2ccc(Cl)cc2)CC1 [Compound 89] | > 100
CC[C@H]1CN(c2nc(NC(C)=O)c(-c3nnc(C)o3)nc2Cl)CCN1C1CCN(Cc2ccc(Cl)cc2)CC1 [Compound 90] | > 100
CCOC(=O)c1nnc(-c2nc(Cl)c(N3CCN(C4CCN(C(=O)c5ccc(Cl)cc5)CC4)[C@@H](CC)C3)nc2N)o1 [Compound 91] | > 100
CC[C@H]1CN(c2nc(N)c(-c3nnc(C)o3)nc2Cl)CCN1C1CCN(C(=O)c2ccc(Cl)cc2NS(C)(=O)=O)CC1 [Compound 92] | > 100
CCNc1nnc(-c2nc(Cl)c(N3C[C@H](CC)N(C4CCN(C(=O)c5ccc(Cl)nc5N)CC4)C[C@H]3C)nc2N)o1 [Compound 93] | < 25
CC[C@H]1CN(c2nc(N)c(-c3nnc(C)o3)nc2Cl)CCN1C1CCN(Cc2cnc(N)nc2)CC1 [Compound 95] | > 100
CCNc1nnc(-c2cnc(N3C[C@H](CC)N(C4CCN(C(=O)c5ccc(Cl)cc5)CC4)C[C@H]3C)c(C)n2)o1 [Compound 96] | < 25
CCNc1nnc(-c2cnc(N3C[C@H](CC)N(C4CCN(C(=O)c5ccc(Cl)nc5N)CC4)C[C@H]3C)c(C)n2)o1 [Compound 97] | < 25
CCNc1nnc(-c2cnc(N3C[C@H](CC)N(C4CCN(C(=O)c5ccc(Cl)nc5N)CC4)C[C@H]3C)c(C(F)(F)F)n2)o1 [Compound 98] | < 25
CCNc1nnc(-c2cnc(N3C[C@H](CC)N(C4CCN(C(=O)c5ccc(Cl)nc5N)CC4)C[C@H]3C)c(Cl)n2)o1 [Compound 100] | < 25

Results, then the compound that gave them:

IC50 [nM] | SMILES
< 25 | CCNc1nnc(-c2cnc(N3C[C@H](CC)N(C4CCN(C(=O)c5ccc(Cl)cc5)CC4)C[C@H]3C)c(Cl)n2)o1 [Compound 101]
< 25 | CC[C@H]1CN(c2ncc(-c3nnc(N)o3)nc2C)[C@H](C)CN1C1CCN(C(=O)c2ccc(Cl)cc2)CC1 [Compound 102]
< 25 | CCNc1nnc(-c2cnc(N3CCN(C4CCN(C(=O)c5ccc(Cl)nc5N)CC4)[C@@H](CC)C3)c(C(F)(F)F)n2)o1 [Compound 103]
< 25 | CC[C@H]1CN(c2ncc(-c3ncc[nH]3)nc2C)CCN1C1CCN(Cc2ccc(F)cc2)CC1 [Compound 104]
< 25 | CC[C@H]1CN(c2ncc(-c3nnc[nH]3)nc2C)CCN1C1CCN(Cc2ccc(F)cc2)CC1 [Compound 105]
< 25 | CC[C@H]1CN(c2ncc(-c3nc[nH]n3)nc2C)[C@H](C)CN1C1CCN(Cc2ccc(F)cc2)CC1 [Compound 106]
< 25 | CC[C@H]1CN(c2ncc(-c3ncc[nH]3)nc2C)CCN1C1CCN(Cc2ccc(Cl)cc2)CC1 [Compound 107]
< 25 | CC[C@H]1CN(c2ncc(-c3ncc[nH]3)nc2C)CCN1C1CCN(Cc2ccc(F)c(F)c2)CC1 [Compound 108]
< 25 | CC[C@H]1CN(c2ncc(-c3nnc[nH]3)nc2C)CCN1C1CCN(Cc2ccc(F)c(F)c2)CC1 [Compound 109]
< 25 | CC[C@H]1CN(c2ncc(-c3nc[nH]n3)nc2C)CCN1C1CCN(C(=O)c2ccc(C)c(F)c2)CC1 [Compound 110]
< 25 | CC[C@H]1CN(c2ncc(-c3ncc[nH]3)nc2C)CCN1C1CCN(C(=O)c2ccc(Cl)cc2)CC1 [Compound 111]
< 25 | CC[C@H]1CN(c2ncc(-c3nc[nH]n3)nc2C)[C@H](C)CN1C1CCN(Cc2ccc(Cl)cc2)CC1 [Compound 112]
< 25 | CC[C@H]1CN(c2ncc(-c3nc[nH]n3)nc2C)CCN1C1CCN(C(=O)c2ccc(F)c(F)c2)CC1 [Compound 113]
< 25 | CC[C@H]1CN(c2ncc(C3=NNCN3)nc2C)[C@H](C)CN1C1CCN(Cc2ccc(F)c(F)c2)CC1 [Compound 114]
< 25 | CCNc1nnc(-c2cnc(N3CCN(C4CCN(Cc5ccc(C)cc5)CC4)[C@@H](CC)C3)c(C)n2)o1 [Compound 115]
< 25 | CC[C@H]1CN(c2ncc(C3=NCCN3)nc2C)[C@H](C)CN1C1CCN(C(=O)c2ccc(Cl)cc2)CC1 [Compound 116]
< 25 | CCNc1nnc(-c2cnc(N3CCN(C4CCN(Cc5ccc(F)cc5)CC4)[C@@H](CC)C3)c(C)n2)o1 [Compound 117]
25 to 100 | CC[C@H]1CN(c2ncc(-c3nnc[nH]3)nc2C)[C@H](C)CN1C1CCN(C(=O)c2ccc(Cl)cc2)CC1 [Compound 118]
< 25 | CC[C@H]1CN(c2ncc(-c3ncc[nH]3)nc2C)CCN1C1CCN(C(=O)c2ccc(Cl)nc2N)CC1 [Compound 119]
< 25 | CC[C@H]1CN(c2ncc(-c3nnc(N)[nH]3)nc2C)CCN1C1CCN(C(=O)c2ccc(Cl)cc2)CC1 [Compound 120]
25 to 100 | CC[C@H]1CN(c2ncc(-c3nc[nH]n3)nc2C)[C@H](C)CN1C1CCN(C(=O)c2ccc(F)c(F)c2)CC1 [Compound 122]
< 25 | CC[C@H]1CN(c2ncc(-c3nnc(N)o3)nc2C)[C@H](C)CN1C1CCN(Cc2ccc(Cl)cc2)CC1 [Compound 123]
< 25 | CC[C@H]1CN(c2ncc(-c3ncc[nH]3)nc2C)CCN1C1CCN(C(=O)c2ccc(Cl)c(F)c2)CC1 [Compound 124]
< 25 | CC[C@H]1CN(c2ncc(-c3nc[nH]n3)nc2C)CCN1C1CCN(C(=O)c2ccc(Cl)c(F)c2)CC1 [Compound 125]
< 25 | CCNc1nnc(-c2cnc(N3CCN(C4CCN(C(=O)c5ccc(C)cc5)CC4)[C@@H](CC)C3)c(C)n2)o1 [Compound 126]
